{"source": "patent US20220324913A1", "about": "“ANTIGENIC NEURON SPECIFIC ENOLASE PEPTIDES FOR DIAGNOSING AND TREATING AUTISM” (THE REGENTS OF THE UNIVERSITY OF CALIFORNIA, priority 2019, published 2022)", "system": "maternal autoantibodies (plasma from mothers of ASD and TD children)", "assay": "NSE 15-mer peptide microarray epitope mapping probed with maternal plasma", "assay_type": "binding, human", "settings": "for Specific binding: group whose antibodies recognize the sequence; for ASD + N = 19 (number of positive samples) / ASD + N = 8 (number of positive samples): mothers of ASD children; for ASD + N = 19 (number of positive samples) / TD + N = 10 (number of positive samples) / ASD + N = 8 (number of positive samples) / TD + N = 11 (number of positive samples): positive if FI >200; for TD + N = 10 (number of positive samples) / TD + N = 11 (number of positive samples): mothers of TD children", "data": [{"substance": "218 (GGFAPNILENSEALE; listed as Homo sapiens) [compound 218]", "values": [{"measurement": "Specific binding", "setting": "ELISA positive samples", "value": "ASD"}, {"measurement": "ASD + N = 19 (number of positive samples)", "setting": "ELISA positive samples", "value": 3}, {"measurement": "TD + N = 10 (number of positive samples)", "setting": "ELISA positive samples", "value": 0}]}, {"substance": "252 (DVAASEFYRDGKYDL; listed as Homo sapiens) [compound 252]", "values": [{"measurement": "Specific binding", "setting": "ELISA positive samples", "value": "ASD"}, {"measurement": "ASD + N = 19 (number of positive samples)", "setting": "ELISA positive samples", "value": 3}, {"measurement": "TD + N = 10 (number of positive samples)", "setting": "ELISA positive samples", "value": 0}]}, {"substance": "279 (TGDQLGALYQDFVRD; listed as Homo sapiens) [compound 279]", "values": [{"measurement": "Specific binding", "setting": "ELISA positive samples", "value": "ASD"}, {"measurement": "ASD + N = 19 (number of positive samples)", "setting": "ELISA positive samples", "value": 5}, {"measurement": "TD + N = 10 (number of positive samples)", "setting": "ELISA positive samples", "value": 0}]}, {"substance": "280 (GDQLGALYQDFVRDY; listed as Homo sapiens) [compound 280]", "values": [{"measurement": "Specific binding", "setting": "ELISA positive samples", "value": "ASD"}, {"measurement": "ASD + N = 19 (number of positive samples)", "setting": "ELISA positive samples", "value": 3}, {"measurement": "TD + N = 10 (number of positive samples)", "setting": "ELISA positive samples", "value": 0}]}, {"substance": "281 (DQLGALYQDFVRDYP; listed as Homo sapiens) [compound 281]", "values": [{"measurement": "Specific binding", "setting": "ELISA positive samples", "value": "ASD"}, {"measurement": "ASD + N = 19 (number of positive samples)", "setting": "ELISA positive samples", "value": 3}, {"measurement": "TD + N = 10 (number of positive samples)", "setting": "ELISA positive samples", "value": 0}]}, {"substance": "288 (QDFVRDYPVVSIEDP; listed as Homo sapiens) [compound 288]", "values": [{"measurement": "Specific binding", "setting": "ELISA negative samples", "value": "ASD"}, {"measurement": "ASD + N = 8 (number of positive samples)", "setting": "ELISA negative samples", "value": 3}, {"measurement": "TD + N = 11 (number of positive samples)", "setting": "ELISA negative samples", "value": 0}]}, {"substance": "289 (DFVRDYPVVSIEDPF; listed as Homo sapiens) [compound 289]", "values": [{"measurement": "Specific binding", "setting": "ELISA positive samples", "value": "ASD"}, {"measurement": "ASD + N = 19 (number of positive samples)", "setting": "ELISA positive samples", "value": 3}, {"measurement": "TD + N = 10 (number of positive samples)", "setting": "ELISA positive samples", "value": 0}]}, {"substance": "290 (FVRDYPVVSIEDPFD; listed as Homo sapiens) [compound 290]", "values": [{"measurement": "Specific binding", "setting": "ELISA negative samples", "value": "ASD and TD"}, {"measurement": "ASD + N = 8 (number of positive samples)", "setting": "ELISA negative samples", "value": 3}, {"measurement": "TD + N = 11 (number of positive samples)", "setting": "ELISA negative samples", "value": 1}]}, {"substance": "291 (VRDYPVVSIEDPFDQ; listed as Homo sapiens) [compound 291]", "values": [{"measurement": "Specific binding", "setting": "ELISA negative samples", "value": "ASD and TD"}, {"measurement": "ASD + N = 8 (number of positive samples)", "setting": "ELISA negative samples", "value": 4}, {"measurement": "TD + N = 11 (number of positive samples)", "setting": "ELISA negative samples", "value": 4}]}, {"substance": "292 (RDYPVVSIEDPFDQD; listed as Homo sapiens) [compound 292]", "values": [{"measurement": "Specific binding", "setting": "ELISA negative samples", "value": "ASD and TD"}, {"measurement": "ASD + N = 8 (number of positive samples)", "setting": "ELISA negative samples", "value": 5}, {"measurement": "TD + N = 11 (number of positive samples)", "setting": "ELISA negative samples", "value": 2}]}, {"substance": "293 (DYPVVSIEDPFDQDD; listed as Homo sapiens) [compound 293]", "values": [{"measurement": "Specific binding", "setting": "ELISA negative samples", "value": "ASD and TD"}, {"measurement": "ASD + N = 8 (number of positive samples)", "setting": "ELISA negative samples", "value": 6}, {"measurement": "TD + N = 11 (number of positive samples)", "setting": "ELISA negative samples", "value": 7}, {"measurement": "ASD + N = 19 (number of positive samples)", "setting": "ELISA positive samples", "value": 6}, {"measurement": "TD + N = 10 (number of positive samples)", "setting": "ELISA positive samples", "value": 4}]}, {"substance": "294 (YPVVSIEDPFDQDDW; listed as Homo sapiens) [compound 294]", "values": [{"measurement": "Specific binding", "setting": "ELISA negative samples", "value": "ASD and TD"}, {"measurement": "ASD + N = 8 (number of positive samples)", "setting": "ELISA negative samples", "value": 5}, {"measurement": "TD + N = 11 (number of positive samples)", "setting": "ELISA negative samples", "value": 7}, {"measurement": "ASD + N = 19 (number of positive samples)", "setting": "ELISA positive samples", "value": 8}, {"measurement": "TD + N = 10 (number of positive samples)", "setting": "ELISA positive samples", "value": 4}]}, {"substance": "295 (PVVSIEDPFDQDDWA; listed as Homo sapiens) [compound 295]", "values": [{"measurement": "Specific binding", "setting": "ELISA negative samples", "value": "ASD and TD"}, {"measurement": "ASD + N = 8 (number of positive samples)", "setting": "ELISA negative samples", "value": 4}, {"measurement": "TD + N = 11 (number of positive samples)", "setting": "ELISA negative samples", "value": 3}, {"measurement": "ASD + N = 19 (number of positive samples)", "setting": "ELISA positive samples", "value": 5}, {"measurement": "TD + N = 10 (number of positive samples)", "setting": "ELISA positive samples", "value": 2}]}, {"substance": "296 (VVSIEDPFDQDDWAA; listed as Homo sapiens) [compound 296]", "values": [{"measurement": "Specific binding", "setting": "ELISA negative samples", "value": "ASD and TD"}, {"measurement": "ASD + N = 8 (number of positive samples)", "setting": "ELISA negative samples", "value": 4}, {"measurement": "TD + N = 11 (number of positive samples)", "setting": "ELISA negative samples", "value": 2}, {"measurement": "ASD + N = 19 (number of positive samples)", "setting": "ELISA positive samples", "value": 4}, {"measurement": "TD + N = 10 (number of positive samples)", "setting": "ELISA positive samples", "value": 1}]}, {"substance": "297 (VSIEDPFDQDDWAAW; listed as Homo sapiens) [compound 297]", "values": [{"measurement": "Specific binding", "setting": "ELISA negative samples", "value": "ASD and TD"}, {"measurement": "ASD + N = 8 (number of positive samples)", "setting": "ELISA negative samples", "value": 2}, {"measurement": "TD + N = 11 (number of positive samples)", "setting": "ELISA negative samples", "value": 2}, {"measurement": "ASD + N = 19 (number of positive samples)", "setting": "ELISA positive samples", "value": 4}, {"measurement": "TD + N = 10 (number of positive samples)", "setting": "ELISA positive samples", "value": 1}]}, {"substance": "298 (SIEDPFDQDDWAAWS; listed as Homo sapiens) [compound 298]", "values": [{"measurement": "Specific binding", "setting": "ELISA positive samples", "value": "ASD"}, {"measurement": "ASD + N = 19 (number of positive samples)", "setting": "ELISA positive samples", "value": 4}, {"measurement": "TD + N = 10 (number of positive samples)", "setting": "ELISA positive samples", "value": 0}]}, {"substance": "299 (IEDPFDQDDWAAWSK; listed as Homo sapiens) [compound 299]", "values": [{"measurement": "Specific binding", "setting": "ELISA positive samples", "value": "ASD"}, {"measurement": "ASD + N = 19 (number of positive samples)", "setting": "ELISA positive samples", "value": 2}, {"measurement": "TD + N = 10 (number of positive samples)", "setting": "ELISA positive samples", "value": 0}]}, {"substance": "407 (RSERLAKYNQLMRIE; listed as Homo sapiens) [compound 407]", "values": [{"measurement": "Specific binding", "setting": "ELISA positive samples", "value": "ASD"}, {"measurement": "ASD + N = 19 (number of positive samples)", "setting": "ELISA positive samples", "value": 3}, {"measurement": "TD + N = 10 (number of positive samples)", "setting": "ELISA positive samples", "value": 0}]}]}
